Read-outs that look alike come from different tables or passages of the source.
What was measured:
[1] = system: OXGR1; assay: ERK phosphorylation by Western blotting in OXGR1-expressing HEK293 cells; type: cell-based, human; details: 5 μM to 1 mM for 15 minutes
Procedure: HEK293 cells were transiently transfected with plasmids expressing empty vector or FLAG-tagged OXGR1 using PolyJet reagent. The medium was switched to serum-free DMEM 36 hours after transfection. After serum starvation for another 12 hours, cells were stimulated with the indicated ligand and lysed in Laemmli buffer. Protein lysate was separated on standard SDS-PAGE, transferred onto a PVDF membrane, and then subjected to immunoblotting with the following antibodies: anti–p-ERK (catalog 4370, Cell Signaling Technology); anti-Flag (catalog 14793, Cell Signaling Technology); anti-IRG1/anti-ACOD1 (catalog 19857, Cell Signaling Technology); anti-Myc (catalog 2278, Cell Signaling Technology); anti-ERK (catalog 67170-1-Ig, Proteintech); and anti-actin (catalog A00702, GenScript).

[2] = ITA concentration in BAL after intranasal supplementation (LC-MS); type: in vivo; details: mouse, bronchoalveolar lavage fluid (BAL), other: intranasal, 20 µL of saline containing 1 mM ITA; 0.5 hours after intranasal ITA supplementation
Procedure: The concentrations of urea in plasma and BAL were determined using a urea assay kit (Solarbio). For ITA determination, samples were extracted by 80% (vol/vol) chilled (–80°C) methanol and analyzed with an ultra-high-performance liquid chromatograph (Acquity UPLC I-Class, Waters) coupled to a triple quadrupole mass spectrometer (Xevo TQ-XS, Waters). For α-KG determination, samples were lyophilized and derived by methoxyamine (MilliporeSigma) and N-methyl-N-[tert-butyldimethylsilyl] trifluoroacetamide (MilliporeSigma) in pyridine (MilliporeSigma). The derivatized sample was injected into an Agilent 7890A-5975C GC-MS system with an HP-5MS column.
Supplementary Figure 8. ITA level is positively correlated with Mucin 5b or β-defensin 1 concentration in BAL from mice after P. aeruginosa infection
A. ITA concentration in BAL was determined by LC-MS after intranasal delivery of 20μL saline containing PAO1 and 1mM ITA (n=3-4).B-C. Comparison of Mucin 5b (B) and β-defensin1 (C) concentration in BAL of P. aeruginosainfected mice with indicated genotypes (n=4-10). Significance is determined by paired t-test. n.s., no significance. D-E. Correlation analysis of ITA concentration and Mucin 5b (D) or β-defensin1 concentration (E) in BAL ofP. aeruginosainfected WT mice. […]

[3] = target: T1, human OXGR1 (Homo sapiens, UniProt Q96P68); assay: cAMP GloSensor assay in HEK293 cells expressing human OXGR1; type: cell-based; details: 0.5 mM ligand, Gs/Gi coupling
Procedure: For the GloSensor assay, HEK293 cells stably expressing pGloSensor-22F were transfected with GPCR plasmids. Thirty-six hours after transfection, cells were trypsinized and resuspended at a density of 2.5 × 10^5 cells/mL in HBSS supplemented with 10 mM HEPES, 0.5% BSA, 2% GloSensor cAMP Reagent stock solution (Promega), and 300 μM IBMX, and loaded with GloSensor substrates for 2 hours. Cell suspensions (100 μL) were aliquoted onto 96-well plates. Cells were treated with 0.5 mM of the indicated ligand or 1 μM forskolin, and luminance was recorded.

[4] = system: primary human bronchial epithelial cells; assay: Calcium imaging (Fluo-4AM) of primary human bronchial epithelial cells; type: cell-based; details: 0.5 mM ITA
Procedure: For calcium imaging of human primary bronchial epithelial cells, cells were infected with 2 CRISPR lentiviruses targeting OXGR1 and cultured for 2 days before calcium imaging. For calcium imaging of primary mouse cells, freshly isolated mouse tracheas were cut into rings, placed onto collagen-coated dishes, and cultured in DMEM supplemented with 10% FBS. Cells were loaded with 5 μM Fluo-4AM for 30 minutes in HBSS buffer, washed twice, and incubated for another 15 minutes for fully deesterification of Fluo-4AM. Cells loaded with Fluo-4AM were monitored with the BioTek Cytation 5 Cell imaging system every 300 ms for a total of 1.5 minutes after ligand administration. Fluorescence was quantified with ImageJ software (NIH).

[5] = system: respiratory epithelium mucin secretion; assay: Intranasal administration, mucin-containing cells in nasal cavity (Alcian blue/PAS); type: in vivo, mouse; details: intranasal 500 μM ITA, 1 hour
Source text: Harvested mouse skulls were fixed in 4% paraformaldehyde overnight and decalcified with 12% EDTA for 2 weeks. After full decalcification, the snoots were trimmed in between the incisor teeth and the first molar teeth. Trimmed tissues were embedded with paraffin, and sections were taken from the most proximal aspect of the nasal cavity. Mucin-containing epithelial cells distributed in the basement membrane of the nasal cavity floor and septum were visualized by Alcian blue/PAS staining and manually counted.

[6] = target: T1, human OXGR1; assay: Aequorin assay (calcium mobilization) in HEK293 cells overexpressing human OXGR1; type: cell-based; details: for EC50: read-out: EC50
Procedure: Thirty-six hours after transfection, cells were maintained in serum-free medium for 12 hours and then loaded with 5 μM coelenterazine for 3 hours. Cells were trypsinized and resuspended at a density of 5 × 10^5 cells/mL in HBSS supplemented with 10 mM HEPES and 0.5% BSA. Cell suspensions of 100 μL were aliquoted into 96-well plates.

[7] = target: T2, human GPCRs (Homo sapiens, UniProt Q96P68); assay: Screen of 301 human GPCRs in transfected HEK293 cells (aequorin, Gα16 coexpression); type: cell-based; details: 301 GPCRs, ligand final 0.625 mM; result for OXGR1
T2 construct: expressed in transfected cells; host or cells: HEK293
Source text: In our search for the function and mechanism of secreted ITA, we noted the signaling of the GPCR proteins SUCNR1/GPR91 and OXGR1/GPR99, which sense the TCA metabolites succinate and α-KG, which are structurally similar to ITA ([27]). To test the hypothesis that ITA may similarly signal through a GPCR, we performed a screening of human GPCRs in transfected HEK293 cells and measured GPCR-dependent calcium mobilization (Figure 1E and Supplemental Figure 1; supplemental material available online with this article; https://doi.org/10.1172/JCI160463DS1). In order to allow more GPCRs to couple with the calcium pathway, we optimized the screening system by inducing coexpression of the promiscuous Gq family α subunit Gα16 ([34]). We examined 301 GPCRs that cover more than 70% of the nonolfactory GPCRs encoded by the human genome ([35]).
For the aequorin assay, HEK293 cells were transfected with aequorin plasmids (Addgene no. 78734), Gα16 plasmid, and GPCR plasmids. Thirty-six hours after transfection, cells were maintained in serum-free medium for 12 hours and then loaded with 5 μM coelenterazine for 3 hours. […] Ligands (100 μL, diluted to 1.25 mM in HBSS buffer, with a final concentration of 0.625 mM) were injected into plates, and luminance was recorded for 30 seconds using the BioTek Synergy H1 plate reader.

SMILES: C=C(CC(=O)O)C(=O)O [ITA, itaconate]
- phosphorylation of ERK [1]: dose-dependently induced
- concentration at 0.5 h [2]: 200 to 300 nM
- intracellular cAMP [3]: did not affect intracellular cAMP
- calcium mobilization ([4]; control cells): robust calcium mobilization
- calcium mobilization after depletion of OXGR1 ([4]; sgOXGR1): abolished by depletion of OXGR1
- mucin-containing cells in respiratory epithelium, Oxgr1+/+ mice [5]: decrease of mucin-containing cells
- mucin-containing cells in respiratory epithelium, Oxgr1–/– mice [5]: did not observe an effect
- calcium response (agonist effect) ([6]; HEK293 cells overexpressing human OXGR1, aequorin): stimulated the calcium response in a dose-dependent manner
- EC50 ([6]; OXGR1, as stated in abstract): ~300 µM
- EC50 ([6]; aequorin assay, hOXGR1 in HEK293 cells): 310 ± 45.2 µM
- EC50 ([6]; human OXGR1, text summary of Figure 1F and Supplemental Figure 2 (aequorin and Fluo-4)): 200 to 300 µM
- calcium mobilization in GPCR screen [7]: the only receptor that showed robust and reproducible calcium mobilization

— article PMC10014103, “The immunometabolite itaconate stimulates OXGR1 to promote mucociliary clearance during the pulmonary innate immune response” (The Journal of Clinical Investigation, 2023)
